US8778871B2 (Takeda Pharmaceutical Company Limited, priority 2004, dated 2014)
Starred links: 1 amine or outer side, 2 acyl side, 3 side chain; linkers in the order of their positions; H or OH if unused. Non-standard residues stand in square brackets, D forms with d. Residues, ends and D or L forms follow the SMILES beside them. *: point of attachment. X10 = CNC(=N)NCCC[C@H](NC(=O)[C@H](CC(C)C)NCCN*)C(=O)N[C@@H](Cc1ccccc1)C(N)=O; X1 = NC(=O)C[C@@H](C(=O)[*:2])N(C[C@@H](N)Cc1ccc(O)cc1)[*:1]; Acetyl(2-(4-imidazolyl)) = O=C(Cc1c[nH]cn1)*; Phe(4-F) = N[C@@H](Cc1ccc(F)cc1)C(=O)O; Arg(Me) = CNC(=N)NCCC[C@H](N)C(=O)O; 4Pal = N[C@@H](Cc1ccncc1)C(=O)O; d4Pal = N[C@H](Cc1ccncc1)C(=O)O; Cbz = O=C(OCc1ccccc1)*; Hexanoyl = CCCCCC(=O)*; azaGly = NNC(=O)O

Target: T1, hOT7T175 (Homo sapiens, UniProt Q969F8)
T1 construct: expressed in transfected cells
Test: Intracellular Ca ion level-increasing activity using FLIPR (180 seconds; specific activity to Metastin (1-54))
Format: cell-based
Conditions: hOT7T175/CHO, change in intracellular calcium ion level for 180 seconds, Tables 21-23
Description: In accordance with the method described in JPA 2000-312590, the intracellular Ca ion level-increasing activity was measured using FLIPR. […]
The intracellular Ca ion level-increasing activity of the synthetic peptide in hOT7T175/CHO was determined using FLIPR (Molecular Devices, Inc.).
hOT7T175/CHO was subcultured in DMEM supplemented with 10% dialyzed fetal bovine serum (hereinafter abbreviated as dFBS) and provided for the experiment (hereinafter abbreviated as 10% dFBS/DMEM). The hOT7T175/CHO was suspended in 10% dFBS-DMEM in 15×10^4 cells/ml. The suspension was inoculated on a 96-well plate for FLIPR (Black Plate Clear Bottom, Coster, Inc.) at 200 μl each (3.0×10^4 cells/200 μl), followed by incubation at 37° C. overnight in a 5% CO2 incubator. The cells thus incubated were used (hereinafter simply referred to as the cell plate). Then, 21 ml of HANKS/HBSS (9.8 g of HANKS', 0.35 g of sodium hydrogencarbonate, 20 ml of 1M HEPES; after adjusting the pH to 7.4 with 1N sodium hydroxide, the mixture was subjected to sterilization through a filter), 210 μl of […] Probenecid and 210 μl of fetal bovine serum (FBS) were mixed (HANKS/HBSS-Probenecid-FBS).
Furthermore, 2 vials of Fluo3-AM (50 μg/vial) were dissolved in 21 μL of dimethylsulfoxide and 21 μL of 20% Pluronic acid. The resulting solution was added to and mixed with 10 ml of HANKS/HBSS-Probenecid-FBS described above. After the culture medium was removed, the mixture was dispensed onto the cell plate in 100 μl each/well, followed by incubation at 37° C. for an hour in a 5% CO2 incubator (pigment loading). The peptide was dissolved in dimethylsulfoxide in 1×10^−3 M. The peptide solution was diluted with HANKS'/HBSS containing 2.5 mM Probenecid and 0.2% BSA. The dilution was transferred to a 96-well plate for FLIPR (V-Bottom plate, Coster, Inc.) (hereinafter referred to as a sample plate). After completion of the pigment loading onto the cell plate, the cell plate washed 4 times with wash buffer, which was obtained by adding 2.5 mM Probenecid to HANKS'/HBSS, using a plate washer to leave 100 μL of wash buffer after the washing. The cell plate and the sample plate were set in FLIPR and 0.05 ml of a sample from the sample plate was automatically transferred to the cell plate with the FLIPR device to promote the cell response. A change in intracellular calcium ion level for 180 seconds was measured with passage of time.

T1 sequence (Q969F8 whole entry L364H): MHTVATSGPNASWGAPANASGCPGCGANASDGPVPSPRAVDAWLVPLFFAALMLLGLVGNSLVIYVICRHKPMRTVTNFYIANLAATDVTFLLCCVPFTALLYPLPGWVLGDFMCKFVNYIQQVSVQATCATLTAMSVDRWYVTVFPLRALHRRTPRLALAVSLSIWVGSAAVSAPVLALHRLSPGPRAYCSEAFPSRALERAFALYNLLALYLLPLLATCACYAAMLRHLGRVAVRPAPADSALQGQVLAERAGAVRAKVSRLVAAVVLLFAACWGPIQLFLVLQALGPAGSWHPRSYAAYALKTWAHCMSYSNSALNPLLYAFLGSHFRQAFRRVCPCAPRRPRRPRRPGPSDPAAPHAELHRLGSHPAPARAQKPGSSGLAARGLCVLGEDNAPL

Compound | intracellular Ca ion level-increasing activity [specific activity to Metastin (1-54)]
CNC(=N)NCCC[C@H](NC(=O)[C@H](CC(C)C)NC(=O)NNC(=O)[C@H](Cc1ccccc1)NC(=O)[C@H](CO)NC(=O)[C@H](CC(N)=O)NC(=O)[C@H](Cc1ccncc1)NC(=O)[C@@H](CC(N)=O)NC(=O)[C@H](N)Cc1ccc(O)cc1)C(=O)N[C@@H](Cc1ccc(F)cc1)C(N)=O [Compound No. 317, D-Tyr-D-Asn-Pya(4)-Asn-Ser-Phe-AzaGly-Leu-Arg(Me)-Phe(4F)-NH2] (H-[dY][dN][4Pal]NSF[azaGly]L[Arg(Me)][Phe(4-F)]-NH2) | 1
Trifluoroacetyl-Phe-AzaGly-Leu-Arg(Me)-Trp-NH2 [Compound No. 448] | 3
2-Hydroxyisobutyryl-Phe-AzaGly-Leu-Arg(Me)-Trp-NH2 [Compound No. 453] | 1
D-Tyr-D-Pya(4)-Asn-Ser-Phe-AzaGly-Leu-Lys-Phe-NH2 [Compound No. 487] | 1
CCCCCC(=O)N[C@@H](CC(N)=O)C(=O)N[C@@H](CO)C(=O)N[C@@H](Cc1ccccc1)C(=O)NNC(=O)N[C@@H](CC(C)C)C(=O)N[C@@H](CCCNC(=N)NC)C(=O)N[C@@H](Cc1ccccc1)C(N)=O [Compound No. 277, n-Hexanoyl-Asn-Ser-Phe-AzaGly-Leu-Arg(Me)-Phe-NH2] (Hexanoyl-NSF[azaGly]L[Arg(Me)]F-NH2) | 2
4-Pyridinecarbonyl-Phe-AzaGly-Val-Arg(Me)-Trp-NH2 [Compound No. 460] | ⅓
CNC(=N)NCCC[C@H](NC(=O)[C@H](CC(C)C)NC(=O)NNC(=O)[C@H](Cc1ccccc1)NC(=O)[C@H](CO)NC(=O)[C@H](CC(N)=O)NC(=O)Cc1c[nH]cn1)C(=O)N[C@@H](Cc1ccccc1)C(N)=O [Compound No. 323, 4-Imidazoleacetyl-Asn-Ser-Phe-AzaGly-Leu-Arg(Me)-Phe-NH2] ({Acetyl(2-(4-imidazolyl))}-NSF[azaGly]L[Arg(Me)]F-NH2) | 1
D-Tyr-D-Pya(4)-Asn-Ser-Phe-AzaGly-Leu-Orn-Phe-NH2 [Compound No. 486] | ½
CNC(=N)NCCC[C@H](NC(=O)[C@H](CC(C)C)NC(=O)NNC(=O)[C@H](Cc1ccccc1)NC(=O)[C@H](CO)NC(=O)[C@H](CC(N)=O)NC(=O)[C@@H](NC(=O)[C@@H](CC(N)=O)NC(=O)[C@H](N)Cc1ccc(O)cc1)[C@@H](C)O)C(=O)N[C@@H](Cc1ccc(F)cc1)C(N)=O [Compound No. 316, D-Tyr-D-Asn-Thr-Asn-Ser-Phe-AzaGly-Leu-Arg(Me)-Phe(4F)-NH2] (H-[dY][dN]TNSF[azaGly]L[Arg(Me)][Phe(4-F)]-NH2) | 1
n-Hexanoyl-Phe-AzaGly-Leu-Arg(Me)-Trp-NH2 [Compound No. 366] | ⅓
CNC(=N)NCCC[C@H](NC(=O)[C@H](CC(C)C)NC(=O)NNC(=O)[C@H](Cc1ccccc1)NC(=O)[C@H](CO)NC(=O)[C@H](CC(N)=O)NC(=O)[C@@H](Cc1ccncc1)NC(=O)[C@H](CC(N)=O)NC(=O)[C@H](N)Cc1ccc(O)cc1)C(=O)N[C@@H](Cc1ccccc1)C(N)=O [Compound No. 302, D-Tyr-Asn-D-Pya(4)-Asn-Ser-Phe-AzaGly-Leu-Arg(Me)-Phe-NH2] (H-[dY]N[d4Pal]NSF[azaGly]L[Arg(Me)]F-NH2) | 2
Benzoyl-AzaPhe-AzaGly-Leu-Arg(Me)-Trp-NH2 [Compound No. 431] | 1
2-(Indol-3-yl)ethylcarbamoyl-Phe-AzaGly-Leu-Arg(Me)-Phe-NH2 [Compound No. 364] | 1
CNC(=N)NCCC[C@H](NC(=O)[C@H](CC(C)C)NC(=O)NNC(=O)[C@H](Cc1ccccc1)NC(=O)[C@H](CO)NC(=O)[C@H](CC(N)=O)NC(=O)[C@H](Cc1c[nH]c2ccccc12)NC(C)=O)C(=O)N[C@@H](Cc1ccccc1)C(N)=O [Compound No. 272, Acetyl-Trp-Asn-Ser-Phe-AzaGly-Leu-Arg(Me)-Phe-NH2] (Ac-WNSF[azaGly]L[Arg(Me)]F-NH2) | 2
CNC(=N)NCCC[C@H](NC(=O)[C@H](CC(C)C)NC(=O)NNC(=O)[C@H](Cc1ccccc1)NC(=O)[C@H](CO)NC(=O)[C@H](CC(N)=O)NC(=O)[C@H](Cc1c[nH]c2ccccc12)NC(=O)[C@@H](CO)NC(=O)[C@H](N)Cc1ccc(O)cc1)C(=O)N[C@@H](Cc1ccccc1)C(N)=O [Compound No. 287, D-Tyr-D-Ser-Trp-Asn-Ser-Phe-AzaGly-Leu-Arg(Me)-Phe-NH2] (H-[dY][dS]WNSF[azaGly]L[Arg(Me)]F-NH2) | 2
Methylthiocarbamoyl-Sar-D-Tyr-Asn-Trp-Asn-Ser-Phe-Gly-Leu-Arg(Me)-Phe-NH2 [Compound No. 397] | 5
CNC(=N)NCCC[C@H](NC(=O)[C@H](CC(C)C)NC(=O)NNC(=O)[C@H](Cc1ccccc1)NC(=O)[C@H](CO)NC(=O)[C@H](CC(N)=O)NC(=O)[C@H](Cc1c[nH]c2ccccc12)NC(=O)[C@@H](Cc1c[nH]cn1)NC(=O)[C@H](N)Cc1ccc(O)cc1)C(=O)N[C@@H](Cc1ccccc1)C(N)=O [Compound No. 288, D-Tyr-D-His-Trp-Asn-Ser-Phe-AzaGly-Leu-Arg(Me)-Phe-NH2] (H-[dY][dH]WNSF[azaGly]L[Arg(Me)]F-NH2) | 1
Benzoyl-Pya(4)-AzaGly-Leu-Arg(Me)-Trp-NH2 [Compound No. 442] | ½
CNC(=N)NCCC[C@H](NC(=O)[C@H](CC(C)C)NCCNC(=O)[C@H](Cc1ccccc1)NC(=O)[C@H](CO)NC(=O)[C@H](CC(N)=O)NC(=O)[C@H](Cc1c[nH]c2ccccc12)NC(=O)[C@H](CC(N)=O)NC(=O)[C@H](N)Cc1ccc(O)cc1)C(=O)N[C@@H](Cc1ccccc1)C(N)=O [Compound No. 307, D-Tyr-Asn-Trp-Asn-Ser-Phe-GlyΨ(CH2NH)Leu-Arg(Me)-Phe-NH2] (H-[dY]NWNSF-X10) | 1
Benzylphenethylcarbamoyl-AzaGly-Leu-Arg(Me)-Trp-NH2 [Compound No. 417] | 1
Cbz-[azaGly]L[Arg(Me)]W-NH2 [Compound No. 374] | ⅓
Dibenzylaminocarbamoyl-AzaGly-Leu-Arg(Me)-Trp-NH2 [Compound No. 428] | 1/10
6-Hydroxynicotinoyl-Phe-AzaGly-Leu-Arg(Me)-Trp-NH2 [Compound No. 462] | 1
CNC(=N)NCCC[C@H](NC(=O)[C@H](CC(C)C)NC(=O)NNC(=O)[C@H](Cc1ccccc1)NC(=O)[C@H](CO)NC(=O)[C@H](CC(N)=O)NC(=O)[C@@H](Cc1c[nH]c2ccccc12)NC(=O)[C@H](CC(N)=O)NC[C@@H](N)Cc1ccc(O)cc1)C(=O)N[C@@H](Cc1ccccc1)C(N)=O [Compound No. 300, TyrΨ(CH2NH)Asn-D-Trp-Asn-Ser-Phe-AzaGly-Leu-Arg(Me)-Phe-NH2] (H-[X1][dW]NSF[azaGly]L[Arg(Me)]F-NH2) | 5
